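Each compound was tested at five concentrations against cells in 96-well plates for 48 hours. The concentration for full growth arrest is given as TGI.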
What was measured:
Assay in all cases: NCI anticancer screen, dose series, 48 h
NCI-H23 lung = system: NCI-H23 lung
HT29 colon = system: HT29 colon
UO-31 renal = system: UO-31 renal
HS 578T breast = system: HS 578T breast
786-0 renal = system: 786-0 renal
MDA-MB-435 = system: MDA-MB-435
HCT-15 colon = system: HCT-15 colon
A549 NSCLC = system: A549 NSCLC
EKVX NSCLC = system: EKVX NSCLC
MOLT-4 leukemia = system: MOLT-4 leukemia
PC-3 prostate = system: PC-3 prostate
T-47D breast = system: T-47D breast
MCF7 breast = system: MCF7 breast
SW-620 colon = system: SW-620 colon
A498 renal = system: A498 renal
MALME-3M melanoma = system: MALME-3M melanoma
SK-MEL-5 melanoma = system: SK-MEL-5 melanoma
OVCAR-8 ovarian = system: OVCAR-8 ovarian
RPMI-8226 leukemia = system: RPMI-8226 leukemia
DU-145 prostate = system: DU-145 prostate
BT-549 breast = system: BT-549 breast
SN12C renal = system: SN12C renal
CAKI-1 renal = system: CAKI-1 renal
NCI-H226 lung = system: NCI-H226 lung
OVCAR-4 ovarian = system: OVCAR-4 ovarian
NCI-H522 lung = system: NCI-H522 lung
LOX IMVI melanoma = system: LOX IMVI melanoma
OVCAR-5 ovarian = system: OVCAR-5 ovarian
SF-539 CNS = system: SF-539 CNS
MDA-N = system: MDA-N
HCT-116 colon = system: HCT-116 colon
SK-MEL-28 melanoma = system: SK-MEL-28 melanoma
M14 melanoma = system: M14 melanoma
RXF 393 renal = system: RXF 393 renal
KM12 colon = system: KM12 colon
MDA-MB-231 breast = system: MDA-MB-231 breast
SK-MEL-2 melanoma = system: SK-MEL-2 melanoma
ACHN renal = system: ACHN renal
COLO 205 colon = system: COLO 205 colon
HL-60(TB) leukemia = system: HL-60(TB) leukemia
UACC-257 melanoma = system: UACC-257 melanoma
SR leukemia = system: SR leukemia
OVCAR-3 ovarian = system: OVCAR-3 ovarian
HOP-62 NSCLC = system: HOP-62 NSCLC
U251 CNS = system: U251 CNS
K-562 leukemia = system: K-562 leukemia
SF-268 CNS = system: SF-268 CNS
SF-295 CNS = system: SF-295 CNS
TK-10 renal = system: TK-10 renal
SK-OV-3 ovarian = system: SK-OV-3 ovarian
CCRF-CEM leukemia = system: CCRF-CEM leukemia
SNB-75 CNS = system: SNB-75 CNS
IGROV1 ovarian = system: IGROV1 ovarian
NCI-H460 lung = system: NCI-H460 lung
HCC-2998 colon = system: HCC-2998 colon
NCI/ADR-RES ovarian = system: NCI/ADR-RES ovarian
HOP-92 NSCLC = system: HOP-92 NSCLC
UACC-62 melanoma = system: UACC-62 melanoma
SNB-19 CNS = system: SNB-19 CNS

`COc1ccc(/C=C2\N=C(N/N=C\C(O)C(O)C(O)C(O)CO)NC2=O)cc1` (stereo not given) gave a TGI (NCI-H23 lung) of 54 µM, a TGI (HT29 colon) of over 100 µM and a TGI (UO-31 renal) of over 100 µM. For the same compound, the TGI (HS 578T breast) was 71.7 µM, the TGI (786-0 renal) was over 100 µM and the TGI (MDA-MB-435) was 91.1 µM. The TGI (HCT-15 colon) was over 100 µM, the TGI (A549 NSCLC) was over 100 µM and the TGI (EKVX NSCLC) was over 100 µM. It also gave a TGI (MOLT-4 leukemia) of 62.3 µM, a TGI (PC-3 prostate) of 69.5 µM and a TGI (T-47D breast) of 27.7 µM. It also gave a TGI (MCF7 breast) of over 100 µM, a TGI (SW-620 colon) of over 100 µM and a TGI (A498 renal) of 93 µM. The TGI (MALME-3M melanoma) was 43.4 µM, the TGI (SK-MEL-5 melanoma) was over 100 µM and the TGI (OVCAR-8 ovarian) was 88.3 µM. For the same compound, the TGI (RPMI-8226 leukemia) was over 100 µM, the TGI (DU-145 prostate) was over 100 µM and the TGI (BT-549 breast) was 50.6 µM. For the same compound, the TGI (SN12C renal) was 52.2 µM, the TGI (CAKI-1 renal) was over 100 µM and the TGI (NCI-H226 lung) was over 100 µM. The TGI (OVCAR-4 ovarian) was 53 µM, the TGI (NCI-H522 lung) was 46 µM and the TGI (LOX IMVI melanoma) was over 100 µM. The TGI (OVCAR-5 ovarian) was over 100 µM, the TGI (SF-539 CNS) was 38.5 µM and the TGI (MDA-N) was 39.6 µM. The TGI (HCT-116 colon) was over 100 µM, the TGI (SK-MEL-28 melanoma) was over 100 µM and the TGI (M14 melanoma) was 35.7 µM. For the same compound, the TGI (RXF 393 renal) was over 100 µM, the TGI (KM12 colon) was over 100 µM and the TGI (MDA-MB-231 breast) was 88.5 µM. For the same compound, the TGI (SK-MEL-2 melanoma) was 36.6 µM, the TGI (ACHN renal) was over 100 µM and the TGI (COLO 205 colon) was over 100000 nM. The TGI (HL-60(TB) leukemia) was over 100 µM, the TGI (UACC-257 melanoma) was over 100 µM and the TGI (SR leukemia) was over 100 µM. It also gave a TGI (OVCAR-3 ovarian) of 33.7 µM, a TGI (HOP-62 NSCLC) of 54.9 µM and a TGI (U251 CNS) of 42.7 µM. The TGI (K-562 leukemia) was over 100 µM, the TGI (SF-268 CNS) was 63.2 µM and the TGI (SF-295 CNS) was over 100 µM. For the same compound, the TGI (TK-10 renal) was over 100 µM, the TGI (SK-OV-3 ovarian) was 50.3 µM and the TGI (CCRF-CEM leukemia) was over 100 µM. For the same compound, the TGI (SNB-75 CNS) was 54.3 µM, the TGI (IGROV1 ovarian) was over 100 µM and the TGI (NCI-H460 lung) was over 100 µM. For the same compound, the TGI (HCC-2998 colon) was over 100 µM, the TGI (NCI/ADR-RES ovarian) was over 100 µM and the TGI (HOP-92 NSCLC) was 33.9 µM.
`COc1nc(N)c(N=O)c(OCc2ccccc2)n1` gave a TGI (NCI-H23 lung) of over 10 µM, a TGI (HT29 colon) of over 10 µM and a TGI (HS 578T breast) of over 10 µM. The TGI (786-0 renal) was over 10 µM, the TGI (MDA-MB-435) was over 10 µM and the TGI (HCT-15 colon) was over 10 µM. For the same compound, the TGI (A549 NSCLC) was over 10 µM, the TGI (EKVX NSCLC) was over 10 µM and the TGI (MOLT-4 leukemia) was over 10 µM. It also gave a TGI (PC-3 prostate) of over 10 µM, a TGI (T-47D breast) of 5.49 µM and a TGI (MCF7 breast) of over 10 µM. It also gave a TGI (SW-620 colon) of 4.35 µM, a TGI (A498 renal) of over 10 µM and a TGI (MALME-3M melanoma) of 5.97 µM. It also gave a TGI (SK-MEL-5 melanoma) of over 10 µM, a TGI (UACC-62 melanoma) of over 10 µM and a TGI (OVCAR-8 ovarian) of over 10 µM. The TGI (RPMI-8226 leukemia) was over 10 µM, the TGI (DU-145 prostate) was over 10 µM and the TGI (BT-549 breast) was over 10 µM. It also gave a TGI (SN12C renal) of over 10 µM, a TGI (CAKI-1 renal) of over 10 µM and a TGI (NCI-H226 lung) of over 10 µM. The TGI (OVCAR-4 ovarian) was over 10 µM, the TGI (NCI-H522 lung) was 3.59 µM and the TGI (LOX IMVI melanoma) was over 10 µM. For the same compound, the TGI (OVCAR-5 ovarian) was over 10 µM, the TGI (SF-539 CNS) was over 10 µM and the TGI (MDA-N) was over 10 µM. The TGI (HCT-116 colon) was over 10 µM, the TGI (SK-MEL-28 melanoma) was over 10 µM and the TGI (M14 melanoma) was over 10 µM. It also gave a TGI (RXF 393 renal) of over 10 µM, a TGI (KM12 colon) of over 10 µM and a TGI (MDA-MB-231 breast) of over 10 µM. For the same compound, the TGI (SK-MEL-2 melanoma) was over 10 µM, the TGI (ACHN renal) was over 10 µM and the TGI (COLO 205 colon) was 2370 nM. It also gave a TGI (HL-60(TB) leukemia) of over 10 µM, a TGI (UACC-257 melanoma) of over 10 µM and a TGI (SR leukemia) of over 10 µM. It also gave a TGI (OVCAR-3 ovarian) of over 10 µM, a TGI (HOP-62 NSCLC) of over 10 µM and a TGI (U251 CNS) of over 10 µM. It also gave a TGI (K-562 leukemia) of over 10 µM, a TGI (SF-268 CNS) of over 10 µM and a TGI (SF-295 CNS) of over 10 µM. It also gave a TGI (TK-10 renal) of over 10 µM, a TGI (SNB-19 CNS) of over 10 µM and a TGI (SK-OV-3 ovarian) of over 10 µM. For the same compound, the TGI (CCRF-CEM leukemia) was 6.84 µM, the TGI (SNB-75 CNS) was over 10 µM and the TGI (IGROV1 ovarian) was over 10 µM. It also gave a TGI (NCI-H460 lung) of over 10 µM, a TGI (HCC-2998 colon) of over 10 µM and a TGI (NCI/ADR-RES ovarian) of over 10 µM. It also gave a TGI (HOP-92 NSCLC) of over 10 µM.
